Laboratory results taken from ChEMBL document CHEMBL3991601, “The target landscape of clinical kinase drugs” (Science, 2017).
Counter-ions that a name gives are not always drawn. Active and inactive are the calls of the source. Cut-off read from the data, not from the text of the source: actives have a measured Kd and inactives only a lower limit.

What was measured:
[1] = molecular target: T1, Ephrin type-B receptor 4 (Homo sapiens, UniProt P54760)
T1 sequence (P54760 whole entry): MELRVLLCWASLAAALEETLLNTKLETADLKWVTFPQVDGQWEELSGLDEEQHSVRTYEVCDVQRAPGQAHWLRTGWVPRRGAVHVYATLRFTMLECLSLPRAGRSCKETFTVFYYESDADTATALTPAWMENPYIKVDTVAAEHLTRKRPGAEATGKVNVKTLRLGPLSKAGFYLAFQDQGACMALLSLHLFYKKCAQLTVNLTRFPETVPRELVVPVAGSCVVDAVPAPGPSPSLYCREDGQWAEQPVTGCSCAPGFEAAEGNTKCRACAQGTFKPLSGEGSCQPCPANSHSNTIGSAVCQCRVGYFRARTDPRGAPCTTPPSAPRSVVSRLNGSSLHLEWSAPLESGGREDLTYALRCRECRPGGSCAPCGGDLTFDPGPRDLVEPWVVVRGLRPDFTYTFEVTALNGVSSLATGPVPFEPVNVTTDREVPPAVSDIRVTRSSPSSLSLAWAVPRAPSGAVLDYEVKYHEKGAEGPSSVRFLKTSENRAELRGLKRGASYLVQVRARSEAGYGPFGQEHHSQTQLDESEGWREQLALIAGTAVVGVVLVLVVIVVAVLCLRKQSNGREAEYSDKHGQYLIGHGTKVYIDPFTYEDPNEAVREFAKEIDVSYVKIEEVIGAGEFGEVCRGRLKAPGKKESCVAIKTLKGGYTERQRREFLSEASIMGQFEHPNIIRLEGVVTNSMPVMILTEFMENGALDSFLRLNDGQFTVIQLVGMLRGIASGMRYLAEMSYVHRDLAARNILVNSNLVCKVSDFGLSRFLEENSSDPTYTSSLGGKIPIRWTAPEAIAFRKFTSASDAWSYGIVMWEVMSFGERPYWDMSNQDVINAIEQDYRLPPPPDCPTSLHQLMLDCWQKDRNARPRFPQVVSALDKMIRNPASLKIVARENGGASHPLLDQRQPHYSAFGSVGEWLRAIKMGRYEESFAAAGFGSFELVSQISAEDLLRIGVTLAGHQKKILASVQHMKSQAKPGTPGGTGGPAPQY

[2] = molecular target: T2, Cyclin-G-associated kinase (Homo sapiens, UniProt O14976)
T2 sequence (O14976 whole entry): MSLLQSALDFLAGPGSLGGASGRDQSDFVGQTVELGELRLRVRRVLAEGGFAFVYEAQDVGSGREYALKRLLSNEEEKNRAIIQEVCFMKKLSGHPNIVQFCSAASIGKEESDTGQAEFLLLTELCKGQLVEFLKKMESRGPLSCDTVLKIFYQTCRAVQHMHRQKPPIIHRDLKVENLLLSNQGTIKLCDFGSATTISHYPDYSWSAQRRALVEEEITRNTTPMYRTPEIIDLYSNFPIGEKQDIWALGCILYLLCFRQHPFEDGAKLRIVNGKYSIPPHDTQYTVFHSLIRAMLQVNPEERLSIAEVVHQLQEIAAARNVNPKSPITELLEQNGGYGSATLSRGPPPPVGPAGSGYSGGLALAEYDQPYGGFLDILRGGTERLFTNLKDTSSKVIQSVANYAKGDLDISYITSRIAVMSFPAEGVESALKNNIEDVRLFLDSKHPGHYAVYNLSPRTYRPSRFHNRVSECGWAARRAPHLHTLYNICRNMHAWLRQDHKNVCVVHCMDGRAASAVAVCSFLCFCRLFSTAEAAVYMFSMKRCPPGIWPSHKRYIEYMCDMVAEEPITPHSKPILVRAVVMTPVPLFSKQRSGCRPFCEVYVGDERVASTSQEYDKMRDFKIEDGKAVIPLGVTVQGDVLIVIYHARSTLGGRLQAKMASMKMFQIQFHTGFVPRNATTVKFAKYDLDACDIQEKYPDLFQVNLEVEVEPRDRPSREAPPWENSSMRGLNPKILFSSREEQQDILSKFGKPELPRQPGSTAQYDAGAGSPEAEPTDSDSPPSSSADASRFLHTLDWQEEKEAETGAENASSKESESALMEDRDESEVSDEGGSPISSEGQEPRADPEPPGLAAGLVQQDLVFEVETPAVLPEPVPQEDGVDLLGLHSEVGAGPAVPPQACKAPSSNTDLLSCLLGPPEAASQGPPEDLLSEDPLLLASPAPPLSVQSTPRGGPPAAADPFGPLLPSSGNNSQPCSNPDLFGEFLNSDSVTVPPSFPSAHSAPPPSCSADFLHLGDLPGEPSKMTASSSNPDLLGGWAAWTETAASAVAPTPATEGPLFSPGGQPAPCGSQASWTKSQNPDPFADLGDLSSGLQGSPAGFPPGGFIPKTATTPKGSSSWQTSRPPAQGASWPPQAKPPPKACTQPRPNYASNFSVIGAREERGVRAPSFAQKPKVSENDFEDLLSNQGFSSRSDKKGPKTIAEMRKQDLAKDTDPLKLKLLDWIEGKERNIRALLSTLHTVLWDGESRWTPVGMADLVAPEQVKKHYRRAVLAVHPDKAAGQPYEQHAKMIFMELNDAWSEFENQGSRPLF

[3] = molecular target: 5'-AMP-activated protein kinase catalytic subunit alpha-1 (Homo sapiens, UniProt Q13131)
Sequence of 5'-AMP-activated protein kinase catalytic subunit alpha-1 (Q13131 whole entry): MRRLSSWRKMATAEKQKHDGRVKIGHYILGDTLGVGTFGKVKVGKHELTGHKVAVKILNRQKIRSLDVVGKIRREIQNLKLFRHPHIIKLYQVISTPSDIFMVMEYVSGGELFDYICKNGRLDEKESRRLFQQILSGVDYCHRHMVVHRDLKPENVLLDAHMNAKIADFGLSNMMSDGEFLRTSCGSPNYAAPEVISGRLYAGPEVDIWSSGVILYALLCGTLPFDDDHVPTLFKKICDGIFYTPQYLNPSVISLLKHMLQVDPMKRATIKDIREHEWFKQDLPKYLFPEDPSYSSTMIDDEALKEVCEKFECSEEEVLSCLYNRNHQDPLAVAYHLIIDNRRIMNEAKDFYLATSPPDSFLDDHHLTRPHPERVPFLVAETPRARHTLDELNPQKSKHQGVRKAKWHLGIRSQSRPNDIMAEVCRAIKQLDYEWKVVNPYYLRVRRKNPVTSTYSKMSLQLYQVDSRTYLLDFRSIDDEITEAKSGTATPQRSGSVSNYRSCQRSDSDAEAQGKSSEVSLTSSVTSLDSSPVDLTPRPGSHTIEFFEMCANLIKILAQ

[4] = molecular target: Protein kinase C alpha type (Homo sapiens, UniProt P17252)
[5] = molecular target: T3, Non-receptor tyrosine-protein kinase TNK1 (Homo sapiens, UniProt Q13470)
T3 sequence (Q13470 whole entry): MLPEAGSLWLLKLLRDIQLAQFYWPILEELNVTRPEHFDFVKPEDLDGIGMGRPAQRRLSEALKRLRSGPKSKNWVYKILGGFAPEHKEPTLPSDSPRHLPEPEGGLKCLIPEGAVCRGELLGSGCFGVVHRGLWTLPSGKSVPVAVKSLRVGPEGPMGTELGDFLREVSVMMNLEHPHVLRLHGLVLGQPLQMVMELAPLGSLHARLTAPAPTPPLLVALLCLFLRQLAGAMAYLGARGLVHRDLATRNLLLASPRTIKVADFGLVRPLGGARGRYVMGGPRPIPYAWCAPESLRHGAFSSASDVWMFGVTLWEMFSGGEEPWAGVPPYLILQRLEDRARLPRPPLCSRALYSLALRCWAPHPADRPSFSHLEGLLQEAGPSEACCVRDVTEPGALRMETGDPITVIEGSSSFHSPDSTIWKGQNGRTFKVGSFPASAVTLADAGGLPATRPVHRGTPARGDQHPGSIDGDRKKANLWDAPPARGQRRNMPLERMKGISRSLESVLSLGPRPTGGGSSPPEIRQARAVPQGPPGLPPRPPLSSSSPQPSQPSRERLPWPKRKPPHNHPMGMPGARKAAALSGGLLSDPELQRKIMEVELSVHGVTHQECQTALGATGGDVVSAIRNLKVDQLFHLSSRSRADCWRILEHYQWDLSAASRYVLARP
Note: in the data inactive means no Kd found up to 30 µM.

Kd [1] | Kd [2] | Kd [3] | Kd [4] | Kd [5] | Structure (SMILES)
> 30 µM (inactive) | > 30 µM (inactive) | > 30 µM (inactive) | > 30 µM (inactive) | > 30 µM (inactive) | Cc1cc(C(=O)NOCCO)c(Nc2ccc(I)cc2F)n(C)c1=O [AZD-8330]
> 30 µM (inactive) | > 30 µM (inactive) | > 30 µM (inactive) | > 30 µM (inactive) | > 30 µM (inactive) | Cn1cnc2c(F)c(Nc3ccc(Br)cc3F)c(C(=O)NOCCO)cc21 [BINIMETINIB]
> 30 µM (inactive) | > 30 µM (inactive) | > 30 µM (inactive) | > 30 µM (inactive) | > 30 µM (inactive) | CCn1c(C(=O)N(C2CC2)C2CC2)cc2c3c(ncn3C)c(Nc3cc(C)n(C)n3)nc21 [BMS-911543]
9.82 µM (active) | > 30 µM (inactive) | > 30 µM (inactive) | > 30 µM (inactive) | > 30 µM (inactive) | COc1cc2ncnc(Oc3cccc(NC(=O)Nc4cc(C(C)(C)C(F)(F)F)on4)c3)c2cc1OC [CEP-32496]
> 30 µM (inactive) | > 30 µM (inactive) | > 30 µM (inactive) | > 30 µM (inactive) | 0.027 µM (active) | Cc1cc(Nc2ncc(Cl)c(Nc3ccccc3S(=O)(=O)C(C)C)n2)c(OC(C)C)cc1C1CCNCC1 [CERITINIB]
> 30 µM (inactive) | > 30 µM (inactive) | > 30 µM (inactive) | > 30 µM (inactive) | > 30 µM (inactive) | COc1c(OCCCN2CCOCC2)ccc2c1N=C(NC(=O)c1cnc(N)nc1)N1CCN=C21 [COPANLISIB]
> 30 µM (inactive) | > 30 µM (inactive) | > 30 µM (inactive) | > 30 µM (inactive) | > 30 µM (inactive) | COCC(=O)NC/C=C/c1ccc2ncnc(Nc3ccc(Oc4ccc(C)nc4)c(C)c3)c2c1 [CP-724714]
> 30 µM (inactive) | 0.482 µM (active) | > 30 µM (inactive) | > 30 µM (inactive) | > 30 µM (inactive) | C#Cc1cccc(Nc2ncnc3cc(OC)c(OCCCCCCC(=O)NO)cc23)c1 [CUDC-101]
> 30 µM (inactive) | 0.552 µM (active) | 10.8 µM (active) | > 30 µM (inactive) | > 30 µM (inactive) | CCS(=O)(=O)N1CCN(c2ccc(Nc3ncc(C(N)=O)c(NC4CC4)n3)cc2)CC1 [Cerdulatinib Hydrochloride]
> 30 µM (inactive) | > 30 µM (inactive) | > 30 µM (inactive) | > 30 µM (inactive) | > 30 µM (inactive) | Cc1nc2cc(-n3ncc(C(=O)c4cc5ccccc5[nH]4)c3N)ccc2[nH]1 [FGFR INHIBITOR DEBIO 1347]
> 30 µM (inactive) | 0.495 µM (active) | > 30 µM (inactive) | > 30 µM (inactive) | > 30 µM (inactive) | Cc1cccc(-c2nn3c(c2-c2ccnc4ccc(C(N)=O)cc24)CCC3)n1 [GALUNISERTIB]
> 30 µM (inactive) | > 30 µM (inactive) | > 30 µM (inactive) | > 30 µM (inactive) | > 30 µM (inactive) | COc1ccc(S(=O)(=O)N(C(C)=O)c2ccccc2/C=C/c2cc[n+]([O-])cc2)cc1 [HMN-214]
> 30 µM (inactive) | > 30 µM (inactive) | > 30 µM (inactive) | > 30 µM (inactive) | > 30 µM (inactive) | CNC(=O)c1cccc2cc(Oc3ccnc4cc(OCC5(N)CC5)c(OC)cc34)ccc12 [LUCITANIB]
1.07 µM (active) | 0.003 µM (active) | > 30 µM (inactive) | > 30 µM (inactive) | 5.68 µM (active) | CNC(=O)c1nn(C)c2c1C(C)(C)Cc1cnc(Nc3ccc(N4CCN(C)CC4)cc3)nc1-2 [MILCICLIB]
> 30 µM (inactive) | > 30 µM (inactive) | > 30 µM (inactive) | > 30 µM (inactive) | > 30 µM (inactive) | NC1(c2ccc(-c3nc4ccn5c(=O)[nH]nc5c4cc3-c3ccccc3)cc2)CCC1 [MK-2206]
> 30 µM (inactive) | > 30 µM (inactive) | > 30 µM (inactive) | > 30 µM (inactive) | > 30 µM (inactive) | CN(C[C@@H]1COCCO1)S(=O)(=O)Nc1ccc2ccc3ncc(-c4cnn(C)c4)cc3c(=O)c2c1 [MK-2461]
> 30 µM (inactive) | > 30 µM (inactive) | > 30 µM (inactive) | > 30 µM (inactive) | > 30 µM (inactive) | Cn1cc(-c2cnc3ccc4ccc(CS(=O)(=O)NCc5ccccn5)cc4c(=O)c3c2)cn1 [MK-8033]
> 30 µM (inactive) | > 30 µM (inactive) | > 30 µM (inactive) | > 30 µM (inactive) | > 30 µM (inactive) | FC(F)(F)c1ccc(/C=C/c2nc(COc3ccc(CCCCn4ccnn4)cc3)co2)cc1 [MUBRITINIB]
> 30 µM (inactive) | > 30 µM (inactive) | > 30 µM (inactive) | > 30 µM (inactive) | > 30 µM (inactive) | COc1ncc(-c2ccc3nccc(-c4ccnnc4)c3c2)cc1NS(=O)(=O)c1ccc(F)cc1F [OMIPALISIB]

Structure (SMILES) | Kd [1] | Kd [2] | Kd [3] | Kd [4] | Kd [5]
NC(=O)Nc1cc(-c2cccc(F)c2)sc1C(=O)N[C@H]1CCCNC1 [AZD-7762] | > 30 µM (inactive) | 0.202 µM (active) | 0.762 µM (active) | > 30 µM (inactive) | > 30 µM (inactive)
O=C(Nc1nc2cccc(-c3ccc(CN4CCS(=O)(=O)CC4)cc3)n2n1)C1CC1 [FILGOTINIB] | > 30 µM (inactive) | > 30 µM (inactive) | > 30 µM (inactive) | > 30 µM (inactive) | > 30 µM (inactive)
